Assay results as given in US20130109682A1, “CYCLIC ETHER COMPOUNDS USEFUL AS KINASE INHIBITORS” (NOVARTIS AG, priority 2010, published 2013).

Key:
Format in all cases: biochemical
GSK3β = GSK3β (Homo sapiens, UniProt P49841); test: GSK3β ATP depletion assay; settings: ATP depletion assay; read-out: GSK3b IC50
Procedure, shortened: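 Kinase activity is read as ATP consumption: luciferase luminescence reports the ATP remaining once roughly half of the 2 μM ATP is used. Reaction mix: 5 nM GSK3β, 10 μM b-CREB peptide, 50 mM Tris pH 7.5, 15 mM MgCl2, 1 mM DTT, 0.1% BSA, 2.5% DMSO. Enzyme and peptide are preincubated 15 min before ATP is added.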

PIM1 = PIM1 (Homo sapiens, UniProt P11309); test: Pim 1 AlphaScreen assay (high ATP); settings: read-out: Pim1 IC50
Procedure: (§1) Pim1, Pim2, Pim3 AlphaScreen Assay Pim 1, Pim 2 & Pim 3 AlphaScreen assays using high ATP (11-125×ATP Km) were used to determine the biochemical activity of the inhibitors. The activity of Pim 1, Pim 2, & Pim 3 is measured using a homogeneous bead based system quantifying the amount of phosphorylated peptide substrate resulting from kinase-catalyzed phosphoryl transfer to a peptide substrate. Compounds to be tested are dissolved in 100% DMSO and directly distributed to a white 384-well plate at […] per well. To start the reaction, 5 μl of 100 nM Bad peptide (Biotin-AGAGRSRHSSYPAGT —OH) and ATP (concentrations described below) in assay buffer (50 mM Hepes, pH=7.5, 5 mM MgCl2, 0.05% BSA, 0.01% Tween-20, 1 mM DTT) is added to each well. This is followed by the addition of 5 μl/well of Pim 1, Pim 2 or Pim 3 kinase in assay buffer (concentrations described below). Final assay concentrations (described below) are in 2.5% DMSO. The reactions are performed for ˜2 hours, then stopped by the addition of 10 μl of 0.75 μg/ml anti-phospho Ser/Thr antibody (Cell Signaling), 10 μg/ml Protein A AlphaScreen beads (Perkin Elmer), and 10 μg/ml streptavidin coated AlphaScreen beads in stop/detection buffer (50 mM EDTA, 95 mM Tris, pH=7.5, 0.01% Tween-20). The stopped reactions are incubated overnight in the dark. The phosphorylated peptide is detected via an […] initiated chemiluminescence/fluorescence cascade using the Envision plate reader (Perkin Elmer).
(§2) IC50, the half maximal inhibitory concentration, represents the concentration of a test compound that is required for 50% inhibition of its target in vitro under the described assay conditions.

PIM2 = PIM2 (Homo sapiens, UniProt Q9P1W9); test: Pim 2 AlphaScreen assay (high ATP); settings: read-out: Pim2 IC50
Procedure, shortened: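 IC50 values rest on detection of phosphorylated Bad peptide: after a ~2 h kinase reaction, an EDTA stop buffer containing anti-phospho Ser/Thr antibody, Protein A and streptavidin AlphaScreen beads was added and read after overnight dark incubation. ATP was high (11-125× Km), with 2.5% DMSO in pH 7.5 Hepes buffer containing MgCl2, BSA, Tween-20 and DTT.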

PIM3 = PIM3 (Homo sapiens, UniProt Q86V86); test: Pim 3 AlphaScreen assay (high ATP); settings: read-out: Pim3 IC50
Procedure: as §1, §2

Chain of GSK3β (P49841 whole entry, species assumed): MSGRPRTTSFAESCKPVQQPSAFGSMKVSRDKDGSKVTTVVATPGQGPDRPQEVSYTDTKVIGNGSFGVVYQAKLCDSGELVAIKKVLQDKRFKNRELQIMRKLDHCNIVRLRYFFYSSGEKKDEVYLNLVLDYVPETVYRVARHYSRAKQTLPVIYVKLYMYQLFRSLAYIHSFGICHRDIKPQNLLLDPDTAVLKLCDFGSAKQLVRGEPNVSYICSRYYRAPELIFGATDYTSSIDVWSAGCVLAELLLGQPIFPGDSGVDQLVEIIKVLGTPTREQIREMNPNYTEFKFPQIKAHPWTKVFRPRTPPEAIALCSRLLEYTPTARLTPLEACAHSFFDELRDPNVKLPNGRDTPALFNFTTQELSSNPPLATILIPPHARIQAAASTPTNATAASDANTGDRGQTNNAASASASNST
Chain of PIM2 (Q9P1W9 whole entry): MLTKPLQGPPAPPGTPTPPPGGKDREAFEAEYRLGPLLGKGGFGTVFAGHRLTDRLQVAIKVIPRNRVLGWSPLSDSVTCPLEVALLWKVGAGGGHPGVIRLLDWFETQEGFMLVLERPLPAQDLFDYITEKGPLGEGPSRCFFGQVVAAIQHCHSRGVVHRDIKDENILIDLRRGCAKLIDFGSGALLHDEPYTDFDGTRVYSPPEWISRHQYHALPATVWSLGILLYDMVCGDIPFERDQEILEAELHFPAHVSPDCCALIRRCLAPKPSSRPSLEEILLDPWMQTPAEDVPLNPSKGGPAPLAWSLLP
Chain of PIM1 (P11309 whole entry): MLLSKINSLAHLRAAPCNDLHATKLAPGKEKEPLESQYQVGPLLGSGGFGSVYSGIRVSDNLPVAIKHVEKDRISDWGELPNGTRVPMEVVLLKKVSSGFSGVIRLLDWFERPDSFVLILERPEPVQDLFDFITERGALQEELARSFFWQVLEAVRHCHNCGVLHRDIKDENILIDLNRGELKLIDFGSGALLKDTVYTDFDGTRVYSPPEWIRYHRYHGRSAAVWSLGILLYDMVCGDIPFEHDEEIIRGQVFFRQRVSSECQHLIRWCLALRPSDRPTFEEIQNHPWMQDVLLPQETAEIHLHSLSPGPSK

SMILES | IC50 (GSK3β) | IC50 (PIM1) | IC50 (PIM2) | IC50 (PIM3)
C[C@]1(O)[C@H](O)C[C@H](c2ccncc2NC(=O)c2ccc(F)c(-c3c(F)cccc3F)n2)O[C@@H]1C1CC1 [Example 247, N-(4-((2R,4R,5S,6R)-6-cyclopropyl-4,5-dihydroxy-5-methyltetrahydro-2H-pyran-2-yl)pyridin-3-yl)-6-(2,6-difluorophenyl)-5-fluoropicolinamide] | 1200 nM | 4.01 nM | 185 nM | 103 nM
C[C@@]1(O)[C@@H](O)C[C@@H](c2ccncc2NC(=O)c2ccc(F)c(-c3c(F)cccc3F)n2)O[C@H]1C1CC1 [Example 248, N-(4-((2S,4S,5R,6S)-6-cyclopropyl-4,5-dihydroxy-5-methyltetrahydro-2H-pyran-2-yl)pyridin-3-yl)-6-(2,6-difluorophenyl)-5-fluoropicolinamide] | 1970 nM | 92 nM | 9280 nM | 2270 nM
C[C@@]1(O)[C@@H](O)C[C@@H](c2ccncc2NC(=O)c2nc(-c3c(F)cccc3F)ncc2N)O[C@H]1C1CC1 [Example 249, 5-amino-N-(4-((2S,4S,5R,6S)-6-cyclopropyl-4,5-dihydroxy-5-methyltetrahydro-2H-pyran-2-yl)pyridin-3-yl)-2-(2,6-difluorophenyl)pyrimidine-4-carboxamide] | 6020 nM | 989 nM | > 25000 nM | 20900 nM
O=C(Nc1cnccc1[C@@H]1C[C@H](O)[C@@H](O)C2(CC2)O1)c1ccc(F)c(-c2c(F)cccc2F)n1 [Example 250, 6-(2,6-difluorophenyl)-N-(4-((5S,7S,8R)-7,8-dihydroxy-4-oxaspiro[2.5]octan-5-yl)pyridin-3-yl)-5-fluoropicolinamide] | 1040 nM | 20.1 nM | 3590 nM | 499 nM
Nc1cnc(-c2c(F)cccc2F)nc1C(=O)Nc1cnccc1[C@@H]1C[C@H](O)[C@@H](O)C2(CC2)O1 [Example 251, 5-amino-2-(2,6-difluorophenyl)-N-(4-((5S,7S,8R)-7,8-dihydroxy-4-oxaspiro[2.5]octan-5-yl)pyridin-3-yl)pyrimidine-4-carboxamide] | 1110 nM | 90.7 nM | 9100 nM | 1320 nM
CC(C)(C)[C@@H]1O[C@H](c2ccncc2NC(=O)c2ccc(F)c(-c3c(F)cccc3F)n2)C[C@H](N)[C@H]1O [Example 254, N-(4-((2S,4S,5R,6S)-4-amino-6-(tert-butyl)-5-hydroxytetrahydro-2H-pyran-2-yl)pyridin-3-yl)-6-(2,6-difluorophenyl)-5-fluoropicolinamide] | 4690 nM | 0.78 nM | 47.2 nM | 16 nM
CC(C)(C)[C@H]1O[C@@H](c2ccncc2NC(=O)c2ccc(F)c(-c3c(F)cccc3F)n2)C[C@@H](N)[C@@H]1O [Example 255, N-(4-((2R,4R,5S,6R)-4-amino-6-(tert-butyl)-5-hydroxytetrahydro-2H-pyran-2-yl)pyridin-3-yl)-6-(2,6-difluorophenyl)-5-fluoropicolinamide] | 2190 nM | 0.03 nM | 1.7 nM | 0.4 nM
C[C@]1(O)[C@H](N)C[C@H](c2ccncc2NC(=O)c2ccc(F)c(-c3c(F)cccc3F)n2)O[C@@H]1C1CC1 [Example 256, N-(4-((2R,4R,5S,6R)-4-amino-6-cyclopropyl-5-hydroxy-5-methyltetrahydro-2H-pyran-2-yl)pyridin-3-yl)-6-(2,6-difluorophenyl)-5-fluoropicolinamide] | 4620 nM | 0.17 nM | 6.1 nM | 1.7 nM
C[C@@]1(O)[C@@H](N)C[C@@H](c2ccncc2NC(=O)c2ccc(F)c(-c3c(F)cccc3F)n2)O[C@H]1C1CC1 [Example 257, N-(4-((2S,4S,5R,6S)-4-amino-6-cyclopropyl-5-hydroxy-5-methyltetrahydro-2H-pyran-2-yl)pyridin-3-yl)-6-(2,6-difluorophenyl)-5-fluoropicolinamide] | 20000 nM | 1.88 nM | 173 nM | 35.9 nM
C[C@]1(O)[C@H](N)C[C@H](c2ccncc2NC(=O)c2nc(-c3c(F)cccc3F)c(F)cc2N)O[C@@H]1C1CC1 [Example 261, 3-amino-N-(4-((2R,4R,5S,6R)-4-amino-6-cyclopropyl-5-hydroxy-5-methyltetrahydro-2H-pyran-2-yl)pyridin-3-yl)-6-(2,6-difluorophenyl)-5-fluoropicolinamide] | 5520 nM | 0.11 nM | 6.1 nM | 1.2 nM
C[C@]1(O)[C@H](N)C[C@H](c2ccncc2NC(=O)c2nc(-c3c(F)cccc3F)ncc2N)O[C@@H]1C1CC1 [Example 262, 5-amino-N-(4-((2R,4R,5S,6R)-4-amino-6-cyclopropyl-5-hydroxy-5-methyltetrahydro-2H-pyran-2-yl)pyridin-3-yl)-2-(2,6-difluorophenyl)pyrimidine-4-carboxamide] | 2020 nM | 2.15 nM | 18.2 nM | 18.1 nM

Further compounds by falling IC50 (GSK3β), results first:

IC50 (GSK3β) | IC50 (PIM1) | IC50 (PIM2) | IC50 (PIM3) | SMILES
1040 nM | 0.34 nM | 6 nM | 3.6 nM | CC(C)(C)[C@H]1O[C@@H](c2ccncc2NC(=O)c2nc(-c3c(F)cccc3F)ncc2N)C[C@@H](N)[C@@H]1O [Example 260, 5-amino-N-(4-((2R,4R,5S,6R)-4-amino-6-tert-butyl-5-hydroxytetrahydro-2H-pyran-2-yl)pyridin-3-yl)-2-(2,6-difluorophenyl)pyrimidine-4-carboxamide]
983 nM | 71.2 nM | 818 nM | 970 nM | C[C@]1(O)[C@H](O)C[C@H](c2ccncc2NC(=O)c2nc(-c3c(F)cccc3F)ncc2N)O[C@@H]1C1CC1 [Example 246, 5-amino-N-(4-((2R,4R,5S,6R)-6-cyclopropyl-4,5-dihydroxy-5-methyltetrahydro-2H-pyran-2-yl)pyridin-3-yl)-2-(2,6-difluorophenyl)pyrimidine-4-carboxamide]
768 nM | 0.05 nM | 6.9 nM | 0.8 nM | Cc1cc(F)c(-c2nc(C(=O)Nc3cnccc3[C@H]3C[C@@H](N)[C@](C)(O)[C@@H](C)O3)ccc2F)c(F)c1 [Example 245, N-(4-((2R,4R,5S,6R)-4-amino-5-hydroxy-5,6-dimethyltetrahydro-2H-pyran-2-yl)pyridin-3-yl)-6-(2,6-difluoro-4-methylphenyl)-5-fluoropicolinamide]
572 nM | 20.3 nM | 848 nM | 252 nM | Nc1cnc(-c2c(F)cccc2F)nc1C(=O)Nc1cnccc1[C@H]1C[C@@H](O)[C@H](O)C2(CC2)O1 [Example 252, 5-amino-2-(2,6-difluorophenyl)-N-(4-((5R,7R,8S)-7,8-dihydroxy-4-oxaspiro[2.5]octan-5-yl)pyridin-3-yl)pyrimidine-4-carboxamide]
273 nM | 0.99 nM | 79.5 nM | 12.6 nM | O=C(Nc1cnccc1[C@H]1C[C@@H](O)[C@H](O)C2(CC2)O1)c1ccc(F)c(-c2c(F)cccc2F)n1 [Example 253, 6-(2,6-difluorophenyl)-N-(4-((5R,7R,8S)-7,8-dihydroxy-4-oxaspiro[2.5]octan-5-yl)pyridin-3-yl)-5-fluoropicolinamide]
218 nM | 0.03 nM | 4.8 nM | 0.4 nM | CC[C@]1(O)[C@H](N)C[C@H](c2ccncc2NC(=O)c2ccc(F)c(-c3c(F)cc(C)cc3F)n2)O[C@@H]1C [Example 259, N-(4-((2R,4R,5S,6R)-4-amino-5-ethyl-5-hydroxy-6-methyltetrahydro-2H-pyran-2-yl)pyridin-3-yl)-6-(2,6-difluoro-4-methylphenyl)-5-fluoropicolinamide]
183 nM | 0.04 nM | 6.2 nM | 0.5 nM | CC[C@]1(O)[C@H](N)C[C@H](c2ccncc2NC(=O)c2ccc(F)c(-c3c(F)cc(OC)cc3F)n2)O[C@@H]1C [Example 258, N-(4-((2R,4R,5S,6R)-4-amino-5-ethyl-5-hydroxy-6-methyltetrahydro-2H-pyran-2-yl)pyridin-3-yl)-6-(2,6-difluoro-4-methoxyphenyl)-5-fluoropicolinamide]
